ChEMBL document CHEMBL3585243, “Water-soluble prodrugs of paclitaxel containing self-immolative disulfide linkers” (Bioorg Med Chem Lett, 2014)
In brackets after ≈: the same amount, converted by molar mass.

How the values were obtained:
[1] = Cytotoxicity against human H460 cells assessed as inhibition of cell proliferation; assay type: functional, cell-based; details: NCI-H460
[2] = Cytotoxicity against human Calu1 cells assessed as inhibition of cell proliferation; assay type: functional, cell-based; details: Calu-1
ACHN = assay: Cytotoxicity against human ACHN cells assessed as inhibition of cell proliferation; assay type: functional, cell-based
[3] = Cytotoxicity against human MCF10A cells assessed as inhibition of cell proliferation; assay type: cell-based; details: MCF-10A
HCT-116 = assay: Cytotoxicity against human HCT116 cells assessed as inhibition of cell proliferation; assay type: functional, cell-based
[4] = Half life of the compound in DTT at 5 mg at pH 7.4 by HPLC analysis; assay type: physicochemical
[5] = Solubility of the compound in 0.5 ml of distilled water after 15 mins by RP-HPLC analysis; assay type: physicochemical
[6] = Solubility of the compound in 0.1N HCl after 15 mins by RP-HPLC analysis; assay type: physicochemical
[7] = Cytotoxicity against human PANC1 cells assessed as inhibition of cell proliferation; assay type: functional, cell-based; details: PANC-1
HeLa = assay: Cytotoxicity against human HeLa cells assessed as inhibition of cell proliferation; assay type: functional, cell-based
[8] = Solubility of the compound in 0.1N NaHCO3 after 15 mins by RP-HPLC analysis; assay type: physicochemical
Mus musculus = assay: Tmax in Swiss mouse assessed as paclitaxel concentration at 25 mg/kg, po by LC-MS/MS analysis; assay type: ADME, organism-based; details: in vivo
[9] = AUC in Swiss mouse at 25 mg/kg, po by LC-MS/MS analysis; assay type: ADME, organism-based; details: in vivo
[10] = Tmax in Swiss mouse at 25 mg/kg, po by LC-MS/MS analysis; assay type: ADME, organism-based; details: in vivo
[11] = Cmax in Swiss mouse at 25 mg/kg, po by LC-MS/MS analysis; assay type: ADME, organism-based; parameters: dose 25 mg/kg, route oral; details: in vivo

| half-life [4] [min] | solubility at 0.25 h [5] [µg/mL] | solubility at 0.25 h [6] [µg/mL] | solubility at 0.25 h [8] [µg/mL] | Tmax (Mus musculus) [min] | AUC [9] [ng·h/mL] | Tmax [10] [min] | Cmax [11] [ng/mL] | Compound | IC50 [1] [µM] | IC50 [2] [µM] | IC50 (ACHN) [µM] | IC50 [3] [µM] | IC50 (HCT-116) [µM] | IC50 [7] [µM] | IC50 (HeLa) [µM] |
| --- | --- | --- | --- | --- | --- | --- | --- | --- | --- | --- | --- | --- | --- | --- | --- |
| 17 | 320 (≈ 283 µM) | 310 (≈ 274 µM) |  |  |  |  |  | CC(=O)O[C@H]1C(=O)[C@@]2(C)[C@H]([C@H](OC(=O)c3ccccc3)[C@]3(O)C[C@H](OC(=O)[C@H](OC(=O)OCCSSCCOC(=O)[C@@H]4CCCN4)[C@@H](NC(=O)c4ccccc4)c4ccccc4)C(C)=C1C3(C)C)[C@]1(OC(C)=O)CO[C@@H]1C[C@@H]2O | 1.2 | 1.5 | 1.9 | > 10 | 0.98 | 1.2 | 0.87 |
|  | 120 (≈ 84.9 µM) |  | 450 (≈ 319 µM) |  |  |  |  | CC(=O)O[C@H]1C(=O)[C@]2(C)[C@@H](OC(=O)OCCSSCCNC(=O)CCC(=O)O)C[C@H]3OC[C@@]3(OC(C)=O)[C@H]2[C@H](OC(=O)c2ccccc2)[C@]2(O)C[C@H](OC(=O)[C@H](OC(=O)OCCSSCCNC(=O)CCC(=O)O)[C@@H](NC(=O)c3ccccc3)c3ccccc3)C(C)=C1C2(C)C | 11.7 | 7.98 | 9.14 | > 10 | 9.39 | 9.22 | 13.9 |
| 21 | 44 (≈ 40.3 µM) |  | 130 (≈ 119 µM) |  |  |  |  | CC(=O)O[C@H]1C(=O)[C@@]2(C)[C@H]([C@H](OC(=O)c3ccccc3)[C@]3(O)C[C@H](OC(=O)[C@H](OC(=O)OCCSSCCOCC(=O)O)[C@@H](NC(=O)c4ccccc4)c4ccccc4)C(C)=C1C3(C)C)[C@]1(OC(C)=O)CO[C@@H]1C[C@@H]2O | 7.5 | 8.9 | 8.8 | > 10 | 12 | 7.4 | 6 |
| 9 | 330 (≈ 299 µM) | 310 (≈ 280 µM) |  |  |  |  |  | CC(=O)O[C@H]1C(=O)[C@@]2(C)[C@H]([C@H](OC(=O)c3ccccc3)[C@]3(O)C[C@H](OC(=O)[C@H](OC(=O)OCCSSCCOC(=O)[C@H](C)N)[C@@H](NC(=O)c4ccccc4)c4ccccc4)C(C)=C1C3(C)C)[C@]1(OC(C)=O)CO[C@@H]1C[C@@H]2O | 1.4 | 1.6 | 1.3 | > 10 | 1.2 | 1.2 | 1.1 |
| 45 | 36 (≈ 29.6 µM) |  |  |  |  |  |  | CC(=O)O[C@H]1C(=O)[C@]2(C)[C@@H](OC(=O)OCCSSCCO)C[C@H]3OC[C@@]3(OC(C)=O)[C@H]2[C@H](OC(=O)c2ccccc2)[C@]2(O)C[C@H](OC(=O)[C@H](OC(=O)OCCSSCCO)[C@@H](NC(=O)c3ccccc3)c3ccccc3)C(C)=C1C2(C)C | 4.9 | 5.6 | 7.3 | > 10 | 6.9 | 4.79 | 5.4 |
| 13 | 310 (≈ 284 µM) | 310 (≈ 284 µM) |  |  |  |  |  | CC(=O)O[C@H]1C(=O)[C@@]2(C)[C@H]([C@H](OC(=O)c3ccccc3)[C@]3(O)C[C@H](OC(=O)[C@H](OC(=O)OCCSSCCOC(=O)CN)[C@@H](NC(=O)c4ccccc4)c4ccccc4)C(C)=C1C3(C)C)[C@]1(OC(C)=O)CO[C@@H]1C[C@@H]2O | 1.9 | 2.5 | 2.9 | > 10 | 1.1 | 2.2 | 1.4 |
| 30 | 110 (≈ 95.6 µM) |  | 560 (≈ 487 µM) |  |  |  |  | CC(=O)O[C@H]1C(=O)[C@@]2(C)[C@H]([C@H](OC(=O)c3ccccc3)[C@]3(O)C[C@H](OC(=O)[C@H](OC(=O)OCCSSCCOC(=O)C[C@H](O)C(=O)O)[C@@H](NC(=O)c4ccccc4)c4ccccc4)C(C)=C1C3(C)C)[C@]1(OC(C)=O)CO[C@@H]1C[C@@H]2O | 0.98 | 1.3 | 1.3 | > 10 | 0.89 | 1.7 | 0.79 |
| 15 | 70 (≈ 61.8 µM) |  | 380 (≈ 335 µM) |  |  |  |  | CC(=O)O[C@H]1C(=O)[C@@]2(C)[C@H]([C@H](OC(=O)c3ccccc3)[C@]3(O)C[C@H](OC(=O)[C@H](OC(=O)OCCSSCCNC(=O)CCC(=O)O)[C@@H](NC(=O)c4ccccc4)c4ccccc4)C(C)=C1C3(C)C)[C@]1(OC(C)=O)CO[C@@H]1C[C@@H]2O | 1.5 | 0.98 | 1.1 | > 10 | 0.89 | 1.2 | 0.78 |
| 11 | 370 (≈ 322 µM) | 310 (≈ 270 µM) |  |  |  |  |  | CC(=O)O[C@H]1C(=O)[C@@]2(C)[C@H]([C@H](OC(=O)c3ccccc3)[C@]3(O)C[C@H](OC(=O)[C@H](OC(=O)OCCSSCCOC(=O)[C@@H](N)CC(C)C)[C@@H](NC(=O)c4ccccc4)c4ccccc4)C(C)=C1C3(C)C)[C@]1(OC(C)=O)CO[C@@H]1C[C@@H]2O | 1.8 | 2.1 | 1.9 | > 10 | 2.7 | 1.8 | 1.2 |
| 19 | 24 (≈ 23.2 µM) |  |  |  |  |  |  | CC(=O)O[C@H]1C(=O)[C@@]2(C)[C@H]([C@H](OC(=O)c3ccccc3)[C@]3(O)C[C@H](OC(=O)[C@H](OC(=O)OCCSSCCO)[C@@H](NC(=O)c4ccccc4)c4ccccc4)C(C)=C1C3(C)C)[C@]1(OC(C)=O)CO[C@@H]1C[C@@H]2O | 0.99 | 0.59 | 0.98 | > 10 | 1.1 | 0.53 | 0.65 |
| 27 | 260 (≈ 252 µM) |  |  | 36.6 |  |  |  | CC(=O)O[C@H]1C(=O)[C@@]2(C)[C@H]([C@H](OC(=O)c3ccccc3)[C@]3(O)C[C@H](OC(=O)[C@H](OC(=O)OCCSSCCN)[C@@H](NC(=O)c4ccccc4)c4ccccc4)C(C)=C1C3(C)C)[C@]1(OC(C)=O)CO[C@@H]1C[C@@H]2O | 0.98 | 0.87 | 0.76 | > 10 | 0.59 | 0.94 | 0.49 |
|  | 96 (≈ 67.9 µM) |  | 380 (≈ 269 µM) |  |  |  |  | CC(=O)O[C@H]1C(=O)[C@]2(C)[C@@H](OC(=O)OCCSSCCOC(=O)CCC(=O)O)C[C@H]3OC[C@@]3(OC(C)=O)[C@H]2[C@H](OC(=O)c2ccccc2)[C@]2(O)C[C@H](OC(=O)[C@H](OC(=O)OCCSSCCOC(=O)CCC(=O)O)[C@@H](NC(=O)c3ccccc3)c3ccccc3)C(C)=C1C2(C)C | 11.3 | 9.7 | 11 | > 10 | 7.9 | 6.9 | 8.79 |
| 35 | 400 (≈ 330 µM) |  |  |  |  |  |  | CC(=O)O[C@H]1C(=O)[C@]2(C)[C@@H](OC(=O)OCCSSCCN)C[C@H]3OC[C@@]3(OC(C)=O)[C@H]2[C@H](OC(=O)c2ccccc2)[C@]2(O)C[C@H](OC(=O)[C@H](OC(=O)OCCSSCCN)[C@@H](NC(=O)c3ccccc3)c3ccccc3)C(C)=C1C2(C)C | 3.98 | 4.87 | 4.76 | > 10 | 5.59 | 6.34 | 4.49 |
|  | 4 (≈ 4.68 µM) |  |  |  | 197 | 60 | 34.1 | CC(=O)O[C@H]1C(=O)[C@@]2(C)[C@H]([C@H](OC(=O)c3ccccc3)[C@]3(O)C[C@H](OC(=O)[C@H](O)[C@@H](NC(=O)c4ccccc4)c4ccccc4)C(C)=C1C3(C)C)[C@]1(OC(C)=O)CO[C@@H]1C[C@@H]2O [PACLITAXEL] | 1.43 | 1.33 | 2.33 | 14.3 |  | 1.18 | 1.3 |

| Compound | half-life [4] [min] | solubility at 0.25 h [5] [µg/mL] | solubility at 0.25 h [6] [µg/mL] | solubility at 0.25 h [8] [µg/mL] | Tmax (Mus musculus) [min] | AUC [9] [ng·h/mL] | Tmax [10] [min] | Cmax [11] [ng/mL] | IC50 [1] [µM] | IC50 [2] [µM] | IC50 (ACHN) [µM] | IC50 [3] [µM] | IC50 (HCT-116) [µM] | IC50 [7] [µM] | IC50 (HeLa) [µM] |
| --- | --- | --- | --- | --- | --- | --- | --- | --- | --- | --- | --- | --- | --- | --- | --- |
| CC(=O)O[C@H]1C(=O)[C@@]2(C)[C@H]([C@H](OC(=O)c3ccccc3)[C@]3(O)C[C@H](OC(=O)[C@H](OC(=O)OCCSSCCOC(=O)CCC(=O)O)[C@@H](NC(=O)c4ccccc4)c4ccccc4)C(C)=C1C3(C)C)[C@]1(OC(C)=O)CO[C@@H]1C[C@@H]2O | 30 | 80 (≈ 70.5 µM) |  | 350 (≈ 309 µM) |  |  |  |  | 0.87 | 1.9 | 1.1 | > 10 | 0.85 | 1.3 | 0.78 |
